According to US20080131511A1, “Pharmaceutical Composition for Treatment of Tear and Salivary Fluid Drying” (Astellas Pharma, Inc., priority 2004, published 2008):

Columns and labels:
Type in all cases: in vivo, mouse (male Balb/c)
[1] = tested on: salivary gland; assay: Salivary fluid secretion after subcutaneous bolus administration; details: mice; for dose at which statistically significant acceleration of salivary fluid secretion was attained / time after administration at which secretion amount of salivary and tear fluid reached maximum: s.c. bolus; for time after administration at which secretion amount of salivary and tear fluid reached maximum: every dose
Protocol: (§1) Male Balb/c mice were used in the test.
(§2) The compound A was dissolved in physiological saline to a concentration of 1, 3, 10, 30 or 100 mg/5 ml, and 5 ml/kg of the drug solution was administered under the dorsal skin. Secreted amounts of salivary and tear fluid were measured just before the administration of compound A and 10, 20, 30, 40 and 50 minutes after the administration. The sweating action was measured 10 minutes after the administration. Also, the growth acceleration action was measured 6 hours after the administration.
(§3) Pilocarpine was dissolved in physiological saline to a concentration of 0.03, 0.1, 0.3, 1, 3 or 10 mg/5 ml, or cevimeline to a concentration of 0.3, 1, 3, 10, 30 or 100 mg/5 ml, and 5 ml/kg of the drug solution was administered under the dorsal skin. Secreted amounts of salivary and tear fluid were measured just before the administration of pilocarpine or cevimeline and 10, 20, 30, 40 and 50 minutes after the administration. The sweating action was measured 10 minutes after the administration. Also, the growth acceleration action was measured 6 hours after the administration.
(§4) The mouth of a mouse was wiped with a cotton ball whose weight had been measured in advance, and the incremental weight was used as the amount of salivary fluid. Also at the same time, a thread for tear fluid measurement (Zone Quick; Menicon) used on the Schirmer test was inserted into the lower eyelid conjunctival sac, and the length of colored part was measured and used as the amount of tear fluid. From the measurement results, area under the secreted amount-versus-time curve (AUC) was calculated.
(§5) All of the test results were expressed as fold increases of the reactions of the drug-administered group versus those of the vehicle-administered group, and comparison between the drug-administered groups and the vehicle-administered group was carried out using Dunnett's t-test. P<0.05 was considered significant. Results

[2] = tested on: lacrimal gland; assay: Tear fluid secretion after subcutaneous bolus administration; details: mice; for dose at which statistically significant acceleration of tear fluid secretion was attained: s.c. bolus
Protocol: as §1, §2, §3, §4, §5

[3] = tested on: ornithine decarboxylase (ODC) activity of parotid salivary gland; assay: Ornithine decarboxylase activity of parotid salivary gland after subcutaneous bolus administration; details: mice
Protocol: (§6) Male Balb/c mice were used in the test. […] Also, the growth acceleration action was measured 6 hours after the administration. […] Also, the growth acceleration action was measured 6 hours after the administration. […] Thus, it can be easily analogized that the ODC activity becomes a useful index of cell growth and function of the exocrine gland. Accordingly, the ability of each drug to activate glandular tissue was evaluated by measuring ODC activity of parotid salivary gland and extra-orbital lacrimal gland. The amount of ^14CO2 formed from L-^14C-ornithine was used as the index of ODC activity. A mouse anesthetized with diethyl ether was sacrificed by bleeding, and left and right parotid salivary glands and extra-orbital lacrimal glands were isolated. After removing the attached connective tissue and fat, the isolated glandular tissues homogenized in 1.5 ml of a homogenate buffer (25 mM Tris-HCl buffer (pH 7.4) containing 0.1 mM ethylenediaminetetraacetic acid, 0.4 mM pyridoxal phosphate, 5 mM dithiothreitol and 0.1% Brij 35®) using a Potter type homogenizer and then centrifuged at 4° C., 15,000 g for 30 minutes, and the supernatant was used as the enzyme fraction. […] The ^14CO2 generated by the reaction was captured by 150 μl of 1 N NaOH soaked in a glass filter. Radioactivity of the ^14CO2 captured on the glass filter was detected using a liquid scintillation counter. The enzyme activity (pmol ^14CO2/mg protein/hour) was calculated from the measured results. All of the test results were expressed as fold increases of the reactions of the drug-administered group versus those of the vehicle-administered group, and comparison between the drug-administered groups and the vehicle-administered group was carried out using Dunnett's t-test. P<0.05 was considered significant. Results

[4] = tested on: ornithine decarboxylase (ODC) activity of extra-orbital lacrimal gland; assay: Ornithine decarboxylase activity of extra-orbital lacrimal gland after subcutaneous bolus administration; details: mice
Protocol: as §6

[5] = tested on: salivary gland; assay: Salivary fluid secretion during subcutaneous continuous administration (osmotic pump); details: mice; for dose showing statistically significant salivary fluid secretion acceleration: cumulative quantity vs vehicle group; for Salivary fluid: AUC of secreted amount
Protocol: as §1
(§7) The compound A was dissolved in physiological saline to a concentration of 0.625, 1.25, 2.5, 5.0, 10 or 20 mg/200 μl, and filled each pump (Alzet mini-osmotic pump 2001D, 8 μl/h, 1 day; DURECT Corporation) with about 200 μl portions It means, that is, each pump releases at a rate of 0.025, 0.05, 0.1, 0.2, 0.4 or 0.8 mg compound A/h, respectively. About 5 mm of dorsal epidermis of a mouse anesthetized with diethyl ether was incised, the osmotic pump already filled with the compound A was subcutaneously implanted, and then the skin was stitched. Secreted amounts of salivary and tear fluid and sweating were periodically measured from just before the implantation of pump until 32 hours after the administration. The ornithine decarboxylase activity was measured 10 hours after the implantation.
(§8) Pilocarpine was dissolved in physiological saline to a concentration of 0.039, 0.078, 0.16 or 0.31 mg/200 μl, or cevimeline to a concentration of 0.16, 0.31, 0.63 or 1.3 mg/200 μl, and filled the osmotic pump (Alzet mini-osmotic pump 2001 D, 8 μl/h, 1 day; DURECT Corporation) with about 200 μl portions. It means, that is, each pump releases at a rate of 0.00156, 0.00312, 0.0064 or 0.0124 mg/h (pilocarpine) or 0.0064, 0.0124, 0.0252 or 0.05 mg/h (cevimeline). About 5 mm of dorsal epidermis of a mouse anesthetized with diethyl ether was incised, the osmotic pump already filled with pilocarpine or cevimeline was subcutaneously implanted, and then the skin was stitched. Secreted amounts of salivary and tear fluid and sweating were periodically measured from just before the implantation of pump until 32 hours after the administration. The ornithine decarboxylase activity was measured 10 hours after the implantation.
as §4, §5

[6] = tested on: lacrimal gland; assay: Tear fluid secretion during subcutaneous continuous administration (osmotic pump); details: mice; for Tear fluid: AUC of secreted amount
Protocol: as §1, §7, §8, §4, §5

[7] = s.c. bolus 0.3 mg/kg, 10 minutes after administration (Table 4)
[8] = s.c. bolus 1 mg/kg, 10 minutes after administration (Table 4)
[9] = s.c. bolus 3 mg/kg, 10 minutes after administration (Table 4)
[10] = s.c. bolus 10 mg/kg, 10 minutes after administration (Table 4)
[11] = 10 minutes after administration
[12] = s.c. bolus 10 mg/kg, ODC activity 6 hours after administration (Table 4)
[13] = s.c. bolus 30 mg/kg, ODC activity 6 hours after administration (Table 4)
[14] = s.c. bolus 100 mg/kg, ODC activity 6 hours after administration (Table 4)
[15] = s.c. osmotic pump 0.16 mg (0.0064 mg/h)
[16] = s.c. osmotic pump 0.31 mg (0.0124 mg/h)
[17] = s.c. osmotic pump 0.63 mg (0.0252 mg/h)
[18] = s.c. osmotic pump 1.25 (0.05 mg/h)
[19] = s.c. bolus 1 mg/kg, 10 minutes after administration
[20] = s.c. bolus 3 mg/kg, 10 minutes after administration
[21] = s.c. bolus 10 mg/kg, 10 minutes after administration
[22] = s.c. bolus 10 mg/kg, ODC activity 6 hours after administration
[23] = s.c. bolus 30 mg/kg, ODC activity 6 hours after administration
[24] = s.c. bolus 100 mg/kg, ODC activity 6 hours after administration
[25] = s.c. osmotic pump 0.63 mg (0.025 mg/h)
[26] = s.c. osmotic pump 1.25 mg (0.05 mg/h)
[27] = s.c. osmotic pump 2.5 mg (0.1 mg/h)
[28] = s.c. osmotic pump 5 mg (0.2 mg/h)
[29] = s.c. osmotic pump 10 mg (0.4 mg/h)

## CC1OC2(CS1)CN1CCC2CC1 (centres unmarked) [cevimeline]
[1]; [7]
  Salivary fluid: 1.2 ± 0.13 fold increase vs. the vehicle group
[1]; [8]
  Salivary fluid: 2.0 ± 0.22 fold increase vs. the vehicle group
[1]; [9]
  Salivary fluid: 2.1 ± 0.42 fold increase vs. the vehicle group
[1]; [10]
  Salivary fluid: 3.1 ± 0.50 fold increase vs. the vehicle group
[1]; [11]
  dose at which statistically significant acceleration of salivary fluid secretion was attained: 3 mg/kg
[1]
  time after administration at which secretion amount of salivary and tear fluid reached maximum: 10 min
[2]; [7]
  Tear fluid: 1.1 ± 0.14 fold increase vs. the vehicle group
[2]; [8]
  Tear fluid: 1.1 ± 0.14 fold increase vs. the vehicle group
[2]; [9]
  Tear fluid: 1.1 ± 0.16 fold increase vs. the vehicle group
[2]; [10]
  Tear fluid: 3.6 ± 0.88 fold increase vs. the vehicle group
[2]; [11]
  dose at which statistically significant acceleration of tear fluid secretion was attained: 10 mg/kg
[3]; [12]
  Glandular cell growth Salivary gland: 1.7 ± 065 fold increase vs. the vehicle group
[3]; [13]
  Glandular cell growth Salivary gland: 1.1 ± 0.33 fold increase vs. the vehicle group
[3]; [14]
  Glandular cell growth Salivary gland: 1.1 ± 0.33 fold increase vs. the vehicle group
[4]; [12]
  Glandular cell growth Lacrimal gland: 1.2 ± 0.90 fold increase vs. the vehicle group
[4]; [13]
  Glandular cell growth Lacrimal gland: 1.2 ± 0.52 fold increase vs. the vehicle group
[4]; [14]
  Glandular cell growth Lacrimal gland: 1.7 ± 0.79 fold increase vs. the vehicle group
[5]; s.c. continuous administration
  dose showing statistically significant salivary fluid secretion acceleration: 0.63 mg
[5]; [15]
  Salivary fluid: 0.98 ± 0.10 fold increase vs. the solvent group
[5]; [16]
  Salivary fluid: 1.0 ± 0.12 fold increase vs. the solvent group
[5]; [17]
  Salivary fluid: 1.5 ± 0.11 fold increase vs. the solvent group
[5]; [18]
  Salivary fluid: 1.7 ± 0.17 fold increase vs. the solvent group
[6]; [15]
  Tear fluid: 1.3 ± 0.05 fold increase vs. the solvent group
[6]; [16]
  Tear fluid: 1.1 ± 0.09 fold increase vs. the solvent group
[6]; [17]
  Tear fluid: 1.4 ± 0.18 fold increase vs. the solvent group
[6]; [18]
  Tear fluid: 1.3 ± 0.04 fold increase vs. the solvent group

## C=C1CC2(CCN(C)CC2)O[C@H]1C [compound A, (−)-(S)-2,8-dimethyl-3-methylene-1-oxa-8-azaspiro[4.5]decane]
[1]; [19]
  Salivary fluid: 1.5 ± 0.10 fold increase vs. the vehicle group
[1]; [20]
  Salivary fluid: 1.8 ± 0.13 fold increase vs. the vehicle group
[1]; [21]
  Salivary fluid: 3.3 ± 1.1 fold increase vs. the vehicle group
[1]; [11]
  dose at which statistically significant acceleration of salivary fluid secretion was attained: 10 mg/kg
[1]
  time after administration at which secretion amount of salivary and tear fluid reached maximum: 10 min
[2]; [19]
  Tear fluid: 1.3 ± 0.11 fold increase vs. the vehicle group
[2]; [20]
  Tear fluid: 1.4 ± 0.15 fold increase vs. the vehicle group
[2]; [21]
  Tear fluid: 2.2 ± 0.25 fold increase vs. the vehicle group
[2]; [11]
  dose at which statistically significant acceleration of tear fluid secretion was attained: 10 mg/kg
[3]; [22]
  Glandular cell growth Salivary gland: 0.71 ± 0.05 fold increase vs. the vehicle group
[3]; [23]
  Glandular cell growth Salivary gland: 0.72 ± 0.11 fold increase vs. the vehicle group
[3]; [24]
  Glandular cell growth Salivary gland: 2.8 ± 0.72 fold increase vs. the vehicle group
[4]; [22]
  Glandular cell growth Lacrimal gland: 0.99 ± 0.24 fold increase vs. the vehicle group
[4]; [23]
  Glandular cell growth Lacrimal gland: 2.2 ± 0.43 fold increase vs. the vehicle group
[4]; [24]
  Glandular cell growth Lacrimal gland: 2.3 ± 0.07 fold increase vs. the vehicle group
[5]; s.c. continuous administration
  dose at which salivary fluid secretion acceleration action reached maximum: 5 mg
  time after osmotic pump implantation at which secreted amount of tear and salivary fluid became maximum: 10 h
  time after osmotic pump implantation at which secreted amount of tear and salivary fluid started to increase: 4 h
  time after which secretion acceleration action almost disappeared: 32 h
  time until which increased secretion of tear and salivary fluid continued: 26 h
  dose showing statistically significant salivary fluid secretion acceleration: ≥ 2.5 mg
[5]; [25]
  Salivary fluid: 0.84 ± 0.11 fold increase vs. the vehicle group
[5]; [26]
  Salivary fluid: 1.4 ± 0.11 fold increase vs. the vehicle group
[5]; [27]
  Salivary fluid: 2.1 ± 0.13 fold increase vs. the vehicle group
[5]; [28]
  Salivary fluid: 2.8 ± 0.21 fold increase vs. the vehicle group
[5]; [29]
  Salivary fluid: 3.4 ± 0.35 fold increase vs. the vehicle group
[6]; s.c. continuous administration
  dose at which tear fluid secretion acceleration action reached maximum: 5 mg
[6]; s.c. continuous administration, cumulative quantity vs vehicle group
  dose showing statistically significant tear fluid secretion acceleration: ≥ 2.5 mg
[6]; [25]
  Tear fluid: 1.3 ± 0.11 fold increase vs. the vehicle group
[6]; [26]
  Tear fluid: 1.3 ± 0.011 fold increase vs. the vehicle group
[6]; [27]
  Tear fluid: 1.9 ± 0.10 fold increase vs. the vehicle group
[6]; [28]
  Tear fluid: 2.3 ± 0.08 fold increase vs. the vehicle group
[6]; [29]
  Tear fluid: 1.6 ± 0.08 fold increase vs. the vehicle group
